A value given as a limit tells only on which side of the number the result lay.

The target of one assay is T1, THR-β/RXR-α (Homo sapiens, UniProt P10828).
T1 sequence (P10828 202-461 limits assumed): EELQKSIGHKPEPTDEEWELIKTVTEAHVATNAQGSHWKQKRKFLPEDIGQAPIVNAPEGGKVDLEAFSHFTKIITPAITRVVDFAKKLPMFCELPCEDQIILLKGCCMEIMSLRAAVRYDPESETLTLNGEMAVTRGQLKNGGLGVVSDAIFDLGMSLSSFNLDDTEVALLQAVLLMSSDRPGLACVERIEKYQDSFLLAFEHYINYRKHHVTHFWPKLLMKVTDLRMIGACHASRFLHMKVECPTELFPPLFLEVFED
T1 sequence (P19793 225-462 partner limits assumed): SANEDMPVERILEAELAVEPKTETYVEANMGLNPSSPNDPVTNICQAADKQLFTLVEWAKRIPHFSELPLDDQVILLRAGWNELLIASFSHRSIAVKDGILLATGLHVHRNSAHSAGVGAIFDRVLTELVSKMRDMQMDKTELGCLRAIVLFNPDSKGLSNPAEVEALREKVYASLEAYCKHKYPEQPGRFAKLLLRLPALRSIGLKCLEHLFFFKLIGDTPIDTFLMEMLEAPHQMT
T1 sequence (Q15596 679-703 partner limits assumed): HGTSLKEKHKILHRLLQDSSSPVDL
The format is biochemical. Particulars: RXR heterodimer assay; compound activity normalized to T3 for THR-β/RXR-α and THR-α/RXR-α.

For a further assay, the target named is T2, TR beta-LBD (Homo sapiens, UniProt P10828).
T2 sequence (P10828 217-461 limits assumed): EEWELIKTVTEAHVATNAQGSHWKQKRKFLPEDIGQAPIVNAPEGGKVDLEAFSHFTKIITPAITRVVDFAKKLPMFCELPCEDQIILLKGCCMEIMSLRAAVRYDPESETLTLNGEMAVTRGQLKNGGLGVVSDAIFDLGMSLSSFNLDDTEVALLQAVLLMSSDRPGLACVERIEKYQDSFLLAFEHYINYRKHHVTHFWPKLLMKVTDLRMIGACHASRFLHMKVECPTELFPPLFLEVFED
The assay is classed as biochemical. The settings on record: TR-FRET assay; THR beta over THR alpha, derived from T3-selectivity normalized data.

With `CCc1n[nH]c2ccc(Oc3c(Cl)cc(-c4n[nH]c(=O)[nH]c4=O)cc3Cl)cc12` [Example 2, 6-(3,5-dichloro-4-((3-ethyl-1H-indazol-5-yl)oxy)phenyl)-1,2,4-triazine-3,5(2H,4H)-dione], the THRβ-Selectivity at THR-β/RXR-α was determined as 3.6; at TR beta-LBD, 28.0.

With `Cc1n[nH]c2ccc(Oc3c(Cl)cc(-n4nc(C#N)c(=O)[nH]c4=O)cc3Cl)cc12` [Example 3, 2-(3,5-dichloro-4-((3-methyl-1H-indazol-5-yl)oxy)phenyl)-3,5-dioxo-2,3,4,5-tetrahydro-1,2,4-triazine-6-carbonitrile], the results for the THRβ-Selectivity on THR-β/RXR-α and on TR beta-LBD were 8.5 and 32.0, respectively.

For the molecule `Cc1n[nH]c2ccc(Oc3c(Cl)cc(NC(=O)c4noc(=O)[nH]4)cc3Cl)cc12` [Example 4, N-(3,5-dichloro-4-((3-methyl-1H-indazol-5-yl)oxy)phenyl)-5-oxo-4,5-dihydro-1,2,4-oxadiazole-3-carboxamide], the THRβ-Selectivity on THR-β/RXR-α was found to be 6.6; on TR beta-LBD, 18.8.

`Cc1n[nH]c2ccc(Oc3c(Cl)cc(-c4n[nH]c(=O)[nH]c4=O)cc3Cl)cc12` [Example 5, 6-(3,5-dichloro-4-((3-methyl-1H-indazol-5-yl)oxy)phenyl)-1,2,4-triazine-3,5(2H,4H)-dione]: the THRβ-Selectivity on THR-β/RXR-α was 3.1; on TR beta-LBD it was 15.6.

With `Cc1n[nH]c2ncc(Oc3c(Cl)cc(NC(=O)c4noc(=O)[nH]4)cc3Cl)cc12` [Example 6, N-(3,5-dichloro-4-((3-methyl-1H-pyrazolo[3,4-b]pyridin-5-yl)oxy)phenyl)-5-oxo-4,5-dihydro-1,2,4-oxadiazole-3-carboxamide], the THRβ-Selectivity on THR-β/RXR-α was 5.6; on TR beta-LBD it was more than 18.5.

Molecule `N#Cc1nn(-c2cc(Cl)c(Oc3ccc4nc(C5CC5)ccc4c3)c(Cl)c2)c(=O)[nH]c1=O` [Example 26, 2-(3,5-dichloro-4-((2-cyclopropylquinolin-6-yl)oxy)phenyl)-3,5-dioxo-2,3,4,5-tetrahydro-1,2,4-triazine-6-carbonitrile] displayed a THRβ-Selectivity at THR-β/RXR-α of 3.3.

On THR-β/RXR-α, `CC(C)n1c(=O)[nH]c2ccc(Oc3c(Cl)cc(NC(=O)c4noc(=O)[nH]4)cc3Cl)cc21` [Example 30, N-(3,5-dichloro-4-((3-isopropyl-2-oxo-2,3-dihydro-1H-benzo[d]imidazol-5-yl)oxy)phenyl)-5-oxo-4,5-dihydro-1,2,4-oxadiazole-3-carboxamide] returned a THRβ-Selectivity of 9.9.

`CCc1ccnc2ccc(Oc3c(Cl)cc(-n4nc(C#N)c(=O)[nH]c4=O)cc3Cl)cc12` [Example 35, 2-(3,5-dichloro-4-((4-ethylquinolin-6-yl)oxy)phenyl)-3,5-dioxo-2,3,4,5-tetrahydro-1,2,4-triazine-6-carbonitrile]: the THRβ-Selectivity on THR-β/RXR-α came out at 10.2.

The molecule `CCc1ccnc2ccc(Oc3c(Cl)cc(NC(=O)c4noc(=O)[nH]4)cc3Cl)cc12` [Example 36, N-(3,5-dichloro-4-((4-ethylquinolin-6-yl)oxy)phenyl)-5-oxo-4,5-dihydro-1,2,4-oxadiazole-3-carboxamide] had a THRβ-Selectivity at THR-β/RXR-α of 7.1.

The molecule `CC(C)(C)n1cnc2ccc(Oc3c(Cl)cc(NC(=O)c4noc(=O)[nH]4)cc3Cl)cc21` [Example 37, N-(4-((1-(tert-butyl)-1H-benzo[d]imidazol-6-yl)oxy)-3,5-dichlorophenyl)-5-oxo-4,5-dihydro-1,2,4-oxadiazole-3-carboxamide] returned a THRβ-Selectivity on THR-β/RXR-α of 8.3.

In the case of `CC(C)(C)n1cnc2ccc(Oc3c(Cl)cc(-n4nc(C#N)c(=O)[nH]c4=O)cc3Cl)cc21` [Example 38, 2-(4-((1-(tert-butyl)-1H-benzo[d]imidazol-6-yl)oxy)-3,5-dichlorophenyl)-3,5-dioxo-2,3,4,5-tetrahydro-1,2,4-triazine-6-carbonitrile], the THRβ-Selectivity on THR-β/RXR-α worked out at 8.4.

Turning to `O=C(Nc1cc(Cl)c(Oc2ccc3nc4n(c3c2)CCCO4)c(Cl)c1)c1noc(=O)[nH]1` [Example 39, N-(3,5-dichloro-4-((3,4-dihydro-2H-benzo[4,5]imidazo[2,1-b][1,3]oxazin-7-yl)oxy)phenyl)-5-oxo-4,5-dihydro-1,2,4-oxadiazole-3-carboxamide], on THR-β/RXR-α, the THRβ-Selectivity turned out to be 5.1.

With `N#Cc1nn(-c2cc(Cl)c(Oc3ccc4nc5n(c4c3)CCCO5)c(Cl)c2)c(=O)[nH]c1=O` [Example 40, 2-(3,5-dichloro-4-((3,4-dihydro-2H-benzo[4,5]imidazo[2,1-b][1,3]oxazin-7-yl)oxy)phenyl)-3,5-dioxo-2,3,4,5-tetrahydro-1,2,4-triazine-6-carbonitrile], the THRβ-Selectivity at THR-β/RXR-α is reported as 11.6.

For the molecule `CC1(n2cnc3ccc(Oc4c(Cl)cc(NC(=O)c5noc(=O)[nH]5)cc4Cl)cc32)CC1` [Example 43, N-(3,5-dichloro-4-((1-(1-methylcyclopropyl)-1H-benzo[d]imidazol-6-yl)oxy)phenyl)-5-oxo-4,5-dihydro-1,2,4-oxadiazole-3-carboxamide], on THR-β/RXR-α, the THRβ-Selectivity amounted to 11.8.

For `CC1(n2cnc3ccc(Oc4c(Cl)cc(-n5nc(C#N)c(=O)[nH]c5=O)cc4Cl)cc32)CC1` [Example 44, 2-(3,5-dichloro-4-((1-(1-methylcyclopropyl)-1H-benzo[d]imidazol-6-yl)oxy)phenyl)-3,5-dioxo-2,3,4,5-tetrahydro-1,2,4-triazine-6-carbonitrile], the THRβ-Selectivity at THR-β/RXR-α stood at 10.1.

The molecule `O=C(Nc1cc(Cl)c(Oc2ccc3nccc(C4CC4)c3c2)c(Cl)c1)c1noc(=O)[nH]1` [Example 51, N-(3,5-dichloro-4-((4-cyclopropylquinolin-6-yl)oxy)phenyl)-5-oxo-4,5-dihydro-1,2,4-oxadiazole-3-carboxamide] gave a THRβ-Selectivity at THR-β/RXR-α of 8.1.

With `N#Cc1nn(-c2cc(Cl)c(Oc3ccc4nccc(C5CC5)c4c3)c(Cl)c2)c(=O)[nH]c1=O` [Example 52, 2-(3,5-dichloro-4-((4-cyclopropylquinolin-6-yl)oxy)phenyl)-3,5-dioxo-2,3,4,5-tetrahydro-1,2,4-triazine-6-carbonitrile], the THRβ-Selectivity at THR-β/RXR-α turned out to be 11.9.

In turn, `O=C(Nc1cc(Cl)c(Oc2ccc3ncn(C4(C(F)(F)F)CC4)c3c2)c(Cl)c1)c1noc(=O)[nH]1` [Example 53, N-(3,5-dichloro-4-((1-(1-(trifluoromethyl)cyclopropyl)-1H-benzo[d]imidazol-6-yl)oxy)phenyl)-5-oxo-4,5-dihydro-1,2,4-oxadiazole-3-carboxamide] came in with a THRβ-Selectivity on THR-β/RXR-α of 14.7.

On to `O=C(Nc1cc(Cl)c(Oc2ccc3ncn(C4(C(F)F)CC4)c3c2)c(Cl)c1)c1noc(=O)[nH]1` [Example 55, N-(3,5-dichloro-4-((1-(1-(difluoromethyl)cyclopropyl)-1H-benzo[d]imidazol-6-yl)oxy)phenyl)-5-oxo-4,5-dihydro-1,2,4-oxadiazole-3-carboxamide], for which the THRβ-Selectivity on THR-β/RXR-α is on record as 14.3.

`N#Cc1nn(-c2cc(Cl)c(Oc3ccc4ncn(C5(C(F)F)CC5)c4c3)c(Cl)c2)c(=O)[nH]c1=O` [Example 56, 2-(3,5-dichloro-4-((1-(1-(difluoromethyl)cyclopropyl)-1H-benzo[d]imidazol-6-yl)oxy)phenyl)-3,5-dioxo-2,3,4,5-tetrahydro-1,2,4-triazine-6-carbonitrile] yielded a THRβ-Selectivity at THR-β/RXR-α of 9.0.

Consider `CCc1c[nH]c2ccc(Oc3c(Cl)cc(-n4nc(C#N)c(=O)[nH]c4=O)cc3Cl)cc12` [Example 59, 2-(3,5-dichloro-4-((3-ethyl-1H-indol-5-yl)oxy)phenyl)-3,5-dioxo-2,3,4,5-tetrahydro-1,2,4-triazine-6-carbonitrile], for which the THRβ-Selectivity at THR-β/RXR-α is 8.4.

(Values after US12528791B2 (priority 2019, dated 2026).)
